# From BindingDB's records for doi:10.1021/bi990174x (University of Queensland, 1999)
# Target: T1, Dimer of Gag-Pol polyprotein [501-599,Q508K,L534I,L564I,C568A,C596A] (Human immunodeficiency virus 1, UniProt P03367, C568A/C596A/L534I/L564I/Q508K)
# T1 construct: 501-599
# Test: Protease Inhibition Assay
# Settings: pH 6.5; 37 °C
smiles,measurement,value
"CCC(=O)N[C@H](C(=O)N[C@@H](Cc1ccc(O)cc1)[C@H](O)CN[C@H]1Cc2ccc(cc2)OCCCNC(=O)[C@H](C(C)CC)NC1=O)C(C)C (stereo partly drawn) [(2S)-N-[(2S,3R)-4-{[(8S,11S)-8-[(2S)-butan-2-yl]-7,10-dioxo-2-oxa-6,9-diazabicyclo[11.2.2]heptadeca-1(15),13,16-trien-11-yl]amino}-3-hydroxy-1-(4-hydroxyphenyl)butan-2-yl]-3-methyl-2-propanamidobutanamide]",Ki,3 nM
